d = 2'-deoxy (DNA)
Tests used:
Type in all cases: cell-based, human
GCP2 = experiment: Immunofluorescence of GCP2 at the centrosome after siRNA treatment; conditions: vs siLamin; FIG. 1B
Description: To test the ability of siRNAs to silence centrosomal gene products, cells were treated with siRNAs for 24 hours. Cells were diploid, telomerase-immortalized human retinal pigment epithelial (RPE1) cells (hTERT-RPE1s from Clontech, Palo Alto, Calif.) (see Morales et al., Nat Genet, 21:115-118, 1999). siRNAs directed to δ-tubulin (SEQ ID NO:2), γ-tubulin (SEQ ID NO:4), GCP2 (SEQ ID NO:5), GCP3(SEQ ID NO:6), cNAP1 (SEQ ID NO:8), PCM1 (SEQ ID NO:9), ninein (SEQ ID NO:21), NEK2a (SEQ ID NO:10), centrin2 (SEQ ID NO:12), CDC14A (SEQ ID NO:13), gapcena (SEQ ID NO:15), nemo (SEQ ID NO:16), pericentrin (SEQ ID NO:23), lamin A/C (CUGGACUUCCAGAAGAACA, SEQ ID NO: 24) zyxin (UGUGGCUGUCAACGAACUC, SEQ ID NO:25), and p53 (GGACAAGGGUUGGGCUGGG, SEQ ID NO:26) were made as complementary single stranded 19-mer siRNAs with 3′ dTdT overhangs (Dharmacon Inc., Lafayette, Colo.), deprotected, annealed and delivered into cells using OLIGOFECTAMINE® from Invitrogen (Carlsbad, Calif.). Nucleotides were delivered in media containing up to 100 nanomolar concentrations of siRNAs. […]
FIG. 1B compares cells treated with siRNA to Lamin (siLamin, left panel) and GCP2 (siGCP2, right panel). Oval shaped fluorescence staining indicates nuclear DNA (large arrow). […]

RPE cells [1] = experiment: Ki-67 staining of siRNA-treated cells; conditions: vs silamin; FIG. 2B
Description: To further study the effects of silencing centrosomal genes, the following cell cycle experiments were performed using RPE cells. In immunofluorescence experiments, cells were delivered by OLIGOFECTAMINE in a media solution containing between 1-100 nanomolar concentration of siRNAs. After 4 hours of incubation with lipofectamine, cells were washed, and cell cycle progression was assayed by (i) treating cells with 5-Bromo-2′-deoxyuridine (BrDU from Sigma, St Louis, Mo.) for 24 hours and staining for BrDU or (ii) staining cells with antibody to Ki-67 (BD Biosciences) according to manufacturer's instructions. BrDU treatment and staining were performed as follows: after 50-70 hours incubation with siRNA, BrDU was added to cells at a final concentration of 5 μg/ml. Cells were fixed in −20° C. methanol and then treated with 2N HCL at 22° C. for 30 minutes, incubated with 1:500 mouse anti-BrdU antibody (Becton Dickinson, Palo Alto, Calif.), and labeled with 1:1,000 goat FITC-mouse antibody (Molecular Probes, Inc.). Cells were also treated with 4′,6-diamidino-2-phenylindole (DAPI) (Molecular Probes) according to the manufacturer's instructions. Cells were prepared, imaged, and the resulting images were deconvolved as described in Example 1.
FIG. 2B confirms the results in FIG. 2A using a different immunofluorescence marker for cell cycle progression. […]

RPE cells [2] = experiment: Flow cytometry (FACS) of nocodazole-induced shift from G1 to G2/M peak after siRNA treatment
Description: For flow cytometry (i.e., fluorescence-activated cell sorter or FACS) experiments, siRNAs were delivered to cells as described above, and were incubated for 50-70 hours. To synchronize cells, nocodazole was added to the cells to a concentration of 5 μg/mL for 12 hours. Cells were stained with propidium iodide and analyzed by flow cytometry (FACSCAN; Becton Dickinson) using FLOJO® software (Tree Star, Inc., Ashland, Oreg.).
In another approach to evaluating the effect requirement for centrosomal gene products, fluorescence assisted cell sorting (flow cytometry or FACS) analysis was performed as described in Gromley et al., J. Cell Biol., 161:535-545 (2003). Briefly, cells were treated with indicated siRNA for at least 50-70 hours, unless otherwise indicated. Cells were synchronized by adding nocodazole to 5 μg/mL for 12 hours prior to cell collection. Cells were collected, fixed in methanol, stained with propidium iodide, and analyzed by flow cytometry (FACSCAN®;Becton Dickinson) using FLOJO® software (Tree Star, Inc.).
FIG. 3A is a graph showing the effects of depleting the indicated centrosomal gene products by siRNA treatment. The left side of the graph depicts the FACS results for treated cells before the addition of nocodazole (-noc). The major fluorescence peak in (-noc) cells is the G1 peak, (i.e., lower DNA fluorescence). The right side of the graph depicts the results for cells after nocodazole treatment (+noc). […] This may be due to inefficient silencing caused by the siRNAs used.
The ability of a number of centrosomal genes to inhibit cell cycling of RPE1 cells was tested by treating cells with siRNAs and performing FACS analysis as described in Example 2.

In the case of “UCUCGUACUCCAGAAGACU (siRNA; RNA, 3' dTdT, backbone not given here) [siGCP2, siRNA directed to GCP2]”, the “GCP2 level in the centrosome (immunofluorescence)” value (GCP2) is reported as “reduced levels of GCP2 in the centrosome”, the “cells expressing Ki67” value (RPE cells [1]) is reported as “Very few cells” and the “block of nocodazole-induced shift to G2/M peak at 72 hours” value (RPE cells [2]; 72 hours of siRNA treatment, FIG. 3B) is reported as “effectively blocked the nocodazole-induced shift”. For the same sequence, the “inhibition of nocodazole-induced shift from G1 peak to G2/M peak” value (RPE cells [2]; siRNA 50-70 hours, nocodazole 5 μg/mL 12 hours, FIG. 3A, FIG. 8) was “prevented nocodazole-induced shift”, the “duration of block of nocodazole shift” value (RPE cells [2]; time course, FIG. 3B) was “at least 244 hours” and the “time of siRNA treatment before prevention of the nocodazole shift occurs” value (RPE cells [2]; time course, FIG. 3B) was over 48 h.

Source: patent US20050208058A1, “Compositions and methods for modulating cell division” (priority 2003, published 2005)
